Assay results reported in US6610310B2, “Polyanionic polymers as adjuvants for mucosal immunization” (priority 1996, dated 2003).

Columns and labels:
Design in all cases: species or system mice
Conditions in all cases: mouse, in vivo
[1] = system: Newcastle Disease Virus (NDV) strain Lasota
[2] = system: influenza virus strain A/Texas
[3] = system: influenza virus, strain MRC-11

Cholera toxin subunit B [CTB]
anti-NDV Ig-producing cells/10^6 cells 3 weeks following immunization, mean; IgA in the spleen [1]: 84 cells/10^6 cells | anti-NDV Ig-producing cells/10^6 cells 3 weeks following immunization, mean; IgG in the lungs [1]: 10 cells/10^6 cells | anti-NDV Ig-producing cells/10^6 cells 3 weeks following immunization, mean; IgG in the spleen [1]: 8 cells/10^6 cells | anti-NDV Ig-producing cells/10^6 cells 6 weeks following immunization, mean; IgA in the lungs [1]: 23 cells/10^6 cells | specific Ig-producing cells/10^6 cells 3 weeks following first immunization, mean; IgA in the lungs [2]: 961 cells/10^6 cells | anti-NDV Ig-producing cells/10^6 cells 3 weeks following immunization, mean; IgA in the lungs [3]: 82 cells/10^6 cells
